PubChem BioAssay AID1918942 (Molecular Pharmacology Branch, DTP, NCI, 2023)
pIC50: −log10 of the molar value.

Tested on: 743489-274-T-PDC complex spheroid viability
Assay: Anticancer human tumor 743489-274-T-PDC patient-derived renal cell carcinoma cell line growth inhibition
Details: for pIC50: curve of first compound; for viability, T/C: stronger effect = lower value
Summary of the method: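 Multicellular complex spheroids of tumor cells with human endothelial cells (HUVEC) and mesenchymal stem cells; the LSD1 inhibitor iadademstat was combined with standard-of-care or investigational agents. Top concentration at or near clinical Cmax, half-log dilutions; final DMSO ≤0.25%.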

[1] = second compound 0.1 µM, first compound 0.0316 µM
[2] = second compound 0.1 µM, first compound 0.1 µM
[3] = second compound 0.316 µM, first compound 0.0316 µM
[4] = second compound 0.316 µM, first compound 0.1 µM
[5] = second compound 1 µM, first compound 0.0316 µM
[6] = second compound 1 µM, first compound 0.1 µM
[7] = second compound 3.16 µM, first compound 0.0316 µM
[8] = second compound 3.16 µM, first compound 0.1 µM
[9] = second compound 10 µM, first compound 0.0316 µM
[10] = second compound 10 µM, first compound 0.1 µM
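Also: spheroids exposed to compounds for 7 days before readout.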
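For viability, T/C in this document: 100% = DMSO vehicle control wells.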

Structure (SMILES): CC1(C)CCC(CN2CCN(c3ccc(C(=O)NS(=O)(=O)c4ccc(NCC5CCOCC5)c([N+](=O)[O-])c4)c(Oc4cnc5[nH]ccc5c4)c3)CC2)=C(c2ccc(Cl)cc2)C1 + NC1CC1c1ccc(-c2cccc(O)c2)cc1
- pIC50 (second compound 0.1 µM): < 5.00
- pIC50 (second compound 0.316 µM): < 5.00
- pIC50 (second compound 1 µM): < 5.00
- pIC50 (second compound 3.16 µM): < 5.00
- pIC50 (second compound 10 µM): < 5.00
- viability, T/C [1]: 90.8%
- viability, T/C [2]: 119%
- viability, T/C (second compound 0.1 µM, first compound 0.316 µM): 106%
- viability, T/C (second compound 0.1 µM, first compound 1 µM): 110%
- viability, T/C (second compound 0.1 µM, first compound 3.16 µM): 122%
- viability, T/C (second compound 0.1 µM, first compound 10 µM): 117%
- viability, T/C [3]: 107%
- viability, T/C [4]: 120%
- viability, T/C (second compound 0.316 µM, first compound 0.316 µM): 112%
- viability, T/C (second compound 0.316 µM, first compound 1 µM): 110%
- viability, T/C (second compound 0.316 µM, first compound 3.16 µM): 119%
- viability, T/C (second compound 0.316 µM, first compound 10 µM): 120%
- viability, T/C [5]: 105%
- viability, T/C [6]: 102%
- viability, T/C (second compound 1 µM, first compound 0.316 µM): 117%
- viability, T/C (second compound 1 µM, first compound 1 µM): 130%
- viability, T/C (second compound 1 µM, first compound 3.16 µM): 113%
- viability, T/C (second compound 1 µM, first compound 10 µM): 107%
- viability, T/C [7]: 103%
- viability, T/C [8]: 104%
- viability, T/C (second compound 3.16 µM, first compound 0.316 µM): 111%
- viability, T/C (second compound 3.16 µM, first compound 1 µM): 109%
- viability, T/C (second compound 3.16 µM, first compound 3.16 µM): 121%
- viability, T/C (second compound 3.16 µM, first compound 10 µM): 94.8%
- viability, T/C [9]: 109%
- viability, T/C [10]: 103%
- viability, T/C (second compound 10 µM, first compound 0.316 µM): 128%
- viability, T/C (second compound 10 µM, first compound 1 µM): 111%
- viability, T/C (second compound 10 µM, first compound 3.16 µM): 113%
- viability, T/C (second compound 10 µM, first compound 10 µM): 95.3%

Structure (SMILES): Cn1ncnc1C1c2n[nH]c(=O)c3cc(F)cc(c23)NC1c1ccc(F)cc1 (stereo not given) + NC1CC1c1ccc(-c2cccc(O)c2)cc1
- pIC50 (second compound 0.1 µM): < 7.00
- pIC50 (second compound 0.316 µM): < 7.00
- pIC50 (second compound 1 µM): < 7.00
- pIC50 (second compound 3.16 µM): < 7.00
- pIC50 (second compound 10 µM): < 7.00
- viability, T/C (second compound 0.1 µM, first compound 0.000316 µM): 118%
- viability, T/C (second compound 0.1 µM, first compound 0.001 µM): 100%
- viability, T/C (second compound 0.1 µM, first compound 0.00316 µM): 102%
- viability, T/C (second compound 0.1 µM, first compound 0.01 µM): 82.8%
- viability, T/C [1]: 92.4%
- viability, T/C [2]: 90.4%
- viability, T/C (second compound 0.316 µM, first compound 0.000316 µM): 106%
- viability, T/C (second compound 0.316 µM, first compound 0.001 µM): 106%
- viability, T/C (second compound 0.316 µM, first compound 0.00316 µM): 101%
- viability, T/C (second compound 0.316 µM, first compound 0.01 µM): 96.1%
- viability, T/C [3]: 98.3%
- viability, T/C [4]: 94.1%
- viability, T/C (second compound 1 µM, first compound 0.000316 µM): 93.1%
- viability, T/C (second compound 1 µM, first compound 0.001 µM): 103%
- viability, T/C (second compound 1 µM, first compound 0.00316 µM): 100%
- viability, T/C (second compound 1 µM, first compound 0.01 µM): 93%
- viability, T/C [5]: 84.6%
- viability, T/C [6]: 97%
- viability, T/C (second compound 3.16 µM, first compound 0.000316 µM): 97.9%
- viability, T/C (second compound 3.16 µM, first compound 0.001 µM): 104%
- viability, T/C (second compound 3.16 µM, first compound 0.00316 µM): 97.8%
- viability, T/C (second compound 3.16 µM, first compound 0.01 µM): 99.1%
- viability, T/C [7]: 87.8%
- viability, T/C [8]: 96.9%
- viability, T/C (second compound 10 µM, first compound 0.000316 µM): 93.8%
- viability, T/C (second compound 10 µM, first compound 0.001 µM): 111%
- viability, T/C (second compound 10 µM, first compound 0.00316 µM): 97.1%
- viability, T/C (second compound 10 µM, first compound 0.01 µM): 105%
- viability, T/C [9]: 100%
- viability, T/C [10]: 90.8%
